This passage reports Ki and IC50 results from article PMC434488 (BMC Biochemistry, 2004).

For experiment [1], the target named is S. cerevisiae carbamylphosphate synthetase – aspartate transcarbamylase multifunctional protein (CPSase-ATCase complex) (Saccharomyces cerevisiae, UniProt P07259, E2182K). The class given is biochemical.
Experiment [2] addresses S. cerevisiae carbamylphosphate synthetase – aspartate transcarbamylase multifunctional protein (CPSase-ATCase complex) (Saccharomyces cerevisiae, UniProt P07259). The class given is biochemical.

Chain of S. cerevisiae carbamylphosphate synthetase – aspartate transcarbamylase multifunctional protein (CPSase-ATCase complex) (Saccharomyces cerevisiae, UniProt P07259) (P07259 2-2214, one chain of several): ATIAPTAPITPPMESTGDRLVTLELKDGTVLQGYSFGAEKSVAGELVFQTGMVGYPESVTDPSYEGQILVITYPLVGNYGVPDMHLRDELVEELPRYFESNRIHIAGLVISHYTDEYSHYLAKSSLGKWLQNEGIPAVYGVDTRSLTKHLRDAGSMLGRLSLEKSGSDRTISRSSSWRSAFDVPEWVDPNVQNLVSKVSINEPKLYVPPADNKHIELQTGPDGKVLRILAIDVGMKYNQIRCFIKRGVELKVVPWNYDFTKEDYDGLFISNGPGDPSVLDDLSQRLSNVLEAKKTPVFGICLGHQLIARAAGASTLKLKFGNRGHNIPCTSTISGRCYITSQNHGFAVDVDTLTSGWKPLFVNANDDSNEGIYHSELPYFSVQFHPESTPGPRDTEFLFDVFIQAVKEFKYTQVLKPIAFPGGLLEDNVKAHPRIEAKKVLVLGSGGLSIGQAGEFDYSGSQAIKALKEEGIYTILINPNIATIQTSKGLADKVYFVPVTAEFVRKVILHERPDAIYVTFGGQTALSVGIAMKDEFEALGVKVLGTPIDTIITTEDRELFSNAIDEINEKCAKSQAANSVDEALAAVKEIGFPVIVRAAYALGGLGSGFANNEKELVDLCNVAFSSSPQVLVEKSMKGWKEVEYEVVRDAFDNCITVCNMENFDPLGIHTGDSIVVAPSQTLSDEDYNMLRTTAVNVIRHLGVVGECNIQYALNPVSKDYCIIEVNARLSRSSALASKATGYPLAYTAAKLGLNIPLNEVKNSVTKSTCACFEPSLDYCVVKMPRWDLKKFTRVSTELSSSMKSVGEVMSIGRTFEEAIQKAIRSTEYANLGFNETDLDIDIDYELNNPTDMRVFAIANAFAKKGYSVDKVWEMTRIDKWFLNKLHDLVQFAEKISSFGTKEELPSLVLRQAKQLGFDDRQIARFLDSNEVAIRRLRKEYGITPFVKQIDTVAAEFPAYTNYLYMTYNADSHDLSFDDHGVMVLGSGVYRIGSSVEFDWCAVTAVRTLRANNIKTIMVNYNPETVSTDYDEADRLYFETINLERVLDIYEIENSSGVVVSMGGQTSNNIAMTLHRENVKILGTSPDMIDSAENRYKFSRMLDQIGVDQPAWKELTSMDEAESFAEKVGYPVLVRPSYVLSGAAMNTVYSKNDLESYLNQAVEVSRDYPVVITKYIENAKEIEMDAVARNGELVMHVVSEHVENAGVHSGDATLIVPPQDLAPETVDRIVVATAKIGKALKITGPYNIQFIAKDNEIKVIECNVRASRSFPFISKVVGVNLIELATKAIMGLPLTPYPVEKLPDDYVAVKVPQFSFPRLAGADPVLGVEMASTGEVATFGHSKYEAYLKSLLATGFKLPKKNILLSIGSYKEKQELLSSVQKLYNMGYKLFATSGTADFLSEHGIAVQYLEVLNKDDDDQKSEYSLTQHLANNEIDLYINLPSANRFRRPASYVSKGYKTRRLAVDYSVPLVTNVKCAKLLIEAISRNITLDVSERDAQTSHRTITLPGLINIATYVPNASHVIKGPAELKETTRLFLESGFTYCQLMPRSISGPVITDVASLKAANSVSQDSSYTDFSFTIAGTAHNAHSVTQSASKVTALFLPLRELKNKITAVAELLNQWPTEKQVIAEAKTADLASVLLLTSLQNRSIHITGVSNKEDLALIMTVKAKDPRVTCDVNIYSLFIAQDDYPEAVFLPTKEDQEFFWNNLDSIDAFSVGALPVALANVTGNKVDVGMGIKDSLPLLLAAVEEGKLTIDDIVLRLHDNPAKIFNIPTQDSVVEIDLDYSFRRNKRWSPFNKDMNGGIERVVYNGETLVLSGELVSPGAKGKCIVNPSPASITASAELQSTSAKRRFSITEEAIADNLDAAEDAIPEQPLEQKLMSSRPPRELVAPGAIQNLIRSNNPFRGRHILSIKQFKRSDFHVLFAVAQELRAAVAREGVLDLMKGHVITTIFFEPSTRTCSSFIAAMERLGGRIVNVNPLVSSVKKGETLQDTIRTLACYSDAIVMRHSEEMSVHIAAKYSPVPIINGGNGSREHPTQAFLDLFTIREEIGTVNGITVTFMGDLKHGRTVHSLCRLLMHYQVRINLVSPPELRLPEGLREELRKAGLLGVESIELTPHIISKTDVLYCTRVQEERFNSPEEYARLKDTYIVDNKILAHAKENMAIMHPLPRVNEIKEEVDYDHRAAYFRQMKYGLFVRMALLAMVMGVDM
Chain of S. cerevisiae carbamylphosphate synthetase – aspartate transcarbamylase multifunctional protein (CPSase-ATCase complex) (Saccharomyces cerevisiae, UniProt P07259, E2182K) (P07259 2-2214 E2182K, one chain of several): as the sequence (P07259 2-2214, one chain of several) above, with E2181K counted along it

One may read the Ki as the equilibrium dissociation constant of an inhibitor or competing ligand from its target. Read a high Ki as lower affinity. As a reminder, the IC50 is the point on the concentration scale where inhibition reaches its midpoint. A lower IC50 goes with inhibition by little substance. For the molecule `O=c1ccn([C@@H]2O[C@H](COP(=O)(O)OP(=O)(O)OP(=O)(O)O)[C@@H](O)[C@H]2O)c(=O)[nH]1` [UTP], the Ki in experiment [1] worked out at 3 ± 1 mM. The molecule further displayed an IC50 in experiment [2] of 0.8 mM.
